Measured values from PubChem BioAssay AID1259375 (The Scripps Research Institute Molecular Screening Center, 2018).
Calls of active or inactive are those of the source. How the calls were made is not given here.

These compounds were tested against Microphthalmia-associated transcription factor (Homo sapiens) (UniProt O75030) (assay: MITF inhibitors by FRET titration, dose response, biochemical, high throughput (AID 1259375;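 further: FRET between CFP-tagged and YFP-tagged MITF protein partners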)). Settings: FRET biochemical assay, MITF inhibition.
Chain of Microphthalmia-associated transcription factor (Homo sapiens) (O75030 whole entry, looked up): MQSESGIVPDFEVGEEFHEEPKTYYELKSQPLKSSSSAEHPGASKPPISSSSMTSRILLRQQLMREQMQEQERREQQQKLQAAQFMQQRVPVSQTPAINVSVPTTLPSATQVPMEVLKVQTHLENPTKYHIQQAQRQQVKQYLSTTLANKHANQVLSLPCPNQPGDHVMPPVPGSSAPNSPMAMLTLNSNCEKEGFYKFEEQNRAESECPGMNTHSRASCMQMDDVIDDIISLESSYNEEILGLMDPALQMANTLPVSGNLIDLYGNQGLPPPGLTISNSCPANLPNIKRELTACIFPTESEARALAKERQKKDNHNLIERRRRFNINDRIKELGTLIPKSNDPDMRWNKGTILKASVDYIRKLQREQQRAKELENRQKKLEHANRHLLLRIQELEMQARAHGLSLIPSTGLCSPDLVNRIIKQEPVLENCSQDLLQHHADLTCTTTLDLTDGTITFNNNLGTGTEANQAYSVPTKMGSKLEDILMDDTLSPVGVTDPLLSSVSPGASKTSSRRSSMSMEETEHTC
`C=CC1=C(C)C2=Cc3c(C=C)c(C)c4[n]3[Sn+2][n]3c(c(C)c(CCC(=O)O)c3=CC3=NC(=C4)C(C)=C3CCC(=O)O)=CC1=N2` was tested, and the IC50 was > 6.48 µM (inactive).
With `O=C1N[C@@H](Cc2ccc(Cl)cc2)C(=O)N2CCN(C(=O)NCc3ccccc3)C[C@H]12` the IC50 was > 6.48 µM (inactive).
`O=C(O)c1cc(S(=O)(=O)Nc2ccc3cn[nH]c3c2)ccc1O` was tested, and the IC50 was > 7 µM (inactive).
With `O=C(O)CCN(CCC(=O)O)c1ccc(O)cc1` the IC50 was 2.99 µM.
`O=C(OCCCC(=O)N1CCOCC1)c1cc(-c2ccco2)nc2ccccc12` was tested, and the IC50 was > 6.58 µM (inactive).
For `CCOC(=O)C1C2NC(=S)N(c3cccc(Cl)c3)C1(C)Oc1c(OC)cccc12` (stereo not given), the IC50 was > 5.09 µM (inactive).
With `CN(C)C(=O)N1CCN(S(=O)(=O)c2cccc([N+](=O)[O-])c2)CC1` the IC50 was > 6.48 µM (inactive).
For `O=C(Nc1ccc(N2CCOCC2)cc1)c1ccc2nc(-c3cccs3)sc2c1`, the IC50 was > 7.76 µM (inactive).
In the case of `CCOC(=O)C1CCCN(Cc2cccc(Br)c2)C1` (stereo not given), the IC50 is reported as > 6.48 µM (inactive).
For `O=C(O)c1cc(-n2cccc2)ccc1Cl`, the IC50 was > 6.48 µM (inactive).
`Cn1cc(-c2nc(Nc3ccc(-n4cnc(N5CCOCC5)n4)cc3)ncc2Br)cn1` was tested, and the IC50 was > 6.48 µM (inactive).
With `O=C1N[C@@H](Cc2ccccc2)C(=O)N2CCN(C(=O)NCc3ccccc3)C[C@H]12` the IC50 was > 6.48 µM (inactive).
In the case of `O=C(O)CCC(NCc1ccco1)C(=O)O` (stereo not given), the IC50 is reported as > 6.85 µM (inactive).
For `O=c1[nH]cccc1-c1ccc(Nc2nccc(-c3ccc4nc(C5CC5)[nH]c(=O)c4c3)n2)cc1`, the IC50 was > 6.48 µM (inactive).
In the case of `Cc1cccc(CN2CCN(S(=O)(=O)c3ccccc3[N+](=O)[O-])CC2)c1`, the IC50 is reported as > 5.08 µM (inactive).
In the case of `COc1cc(-c2ccnc(N)n2)ccc1NC(=O)[C@H]1COc2ccccc2O1`, the IC50 is reported as > 6.48 µM (inactive).
With `c1ccc(COc2ccc(OCCCCn3ccnc3)cc2)cc1` the IC50 was > 6.48 µM (inactive).
With `Cc1cccc(OCC(=O)N2CCN(Cc3cccc(Br)c3)CC2)c1` the IC50 was > 6.48 µM (inactive).
In the case of `N#C/C(=C(/O)COC(=O)c1cc2c(s1)CCC2)c1nc2ccccc2[nH]1`, the IC50 is reported as > 7.1 µM (inactive).
In the case of `NC(=O)Cn1cnc2sc3c(c2c1=O)CCC3`, the IC50 is reported as > 6.48 µM (inactive).
With `O=C(O)c1ccc(NC2OC(CO)C(O)C2O)cc1` (stereo not given) the IC50 was > 5.62 µM (inactive).
For `O=C(O)c1cccc(-n2cccc2/C=C2/NC(=O)N(c3ccc(Cl)cc3)C2=O)c1`, the IC50 was > 6.48 µM (inactive).
With `C/C(=N\Nc1ccc(S(=O)(=O)O)cc1)c1cccc(Br)c1` the IC50 was > 6.48 µM (inactive).
With `O=C(Cn1cc(C(=O)c2ccco2)c2ccccc21)NCc1cccnc1` the IC50 was > 6.48 µM (inactive).
With `OCCNc1cc(-c2cccs2)ncn1` the IC50 was > 6.01 µM (inactive).
With `O=C(/C=C/c1ccco1)NCCCCNC(=O)/C=C/c1ccco1` the IC50 was > 6.48 µM (inactive).
For `NS(=O)(=O)c1ccc(N=Cc2cc3c(cc2[N+](=O)[O-])OCO3)cc1`, the IC50 was > 6.48 µM (inactive).
In the case of `O=C(O)c1ccccc1-c1ccc(/C=C/[N+](=O)[O-])o1`, the IC50 is reported as > 6.48 µM (inactive).
For `COc1ccc2c(c1)CC(C(=O)Nc1ccc(-c3cn[nH]c3)cc1OCc1ccccc1)CO2` (stereo not given), the IC50 was > 6.48 µM (inactive).
`O=C(CCCCC1SCC2NC(=O)NC21)NC1(c2ccc(F)cc2)CCCC1` (stereo not given) was tested, and the IC50 was > 6.48 µM (inactive).
`O=C1N[C@H](CO)C(=O)N2CCN(C(=O)NCc3ccccc3)C[C@H]12` was tested, and the IC50 was > 6.48 µM (inactive).
`O=C(O)c1cccc(-n2cccc2/C=C\[N+](=O)[O-])c1` was tested, and the IC50 was > 6.48 µM (inactive).
For `Cc1cc(C(=O)O)ccc1-c1ccc(/C=C2/NC(=O)NC2=O)o1`, the IC50 was > 6.48 µM (inactive).
With `NC(=O)NC(=O)COC(=O)c1c2c(nc3ccccc13)/C(=C\c1ccco1)CCC2` the IC50 was > 7.04 µM (inactive).
In the case of `S=c1[nH]nc(-c2cccnc2)n1/N=C/C=C/c1ccco1`, the IC50 is reported as > 6.48 µM (inactive).
With `O=C(NCc1cccnc1)c1cccc(-c2cccs2)c1` the IC50 was > 6.64 µM (inactive).
With `CC(C)(C)c1ccc(OCCn2cncn2)c(Cl)c1` the IC50 was > 6.48 µM (inactive).
`Cc1cc2c(c(=O)[nH]1)C(=O)O/C2=C\c1ccco1` was tested, and the IC50 was “inactive”.
In the case of `COc1cc(C=Nc2ccc(N(C)C)cc2)cc(I)c1O`, the IC50 is reported as > 6.48 µM (inactive).
For `CC(C)(C)OC(=O)N1C(C(=O)O)CSC1c1cc2c(cc1[N+](=O)[O-])OCO2` (stereo not given), the IC50 was > 6.48 µM (inactive).
`O=C(NCCO)c1ccc2nc(-c3ccco3)c(-c3ccco3)nc2c1` was tested, and the IC50 was 1.8 µM.
With `C[C@H]1C(=O)N2CCN(C(=O)NCc3ccccc3)C[C@@H]2C(=O)N1C` the IC50 was > 6.48 µM (inactive).
For `COc1ccccc1C1(NC(=O)CCCCC2SCC3NC(=O)NC32)CCCC1` (stereo not given), the IC50 was > 6.48 µM (inactive).
Work on `N#CC(C#N)=C(N)/C(C#N)=C/c1ccc([N+](=O)[O-])o1` yielded an IC50 of 4.85 µM.
For `O=C(O)c1cc(C(=O)O)cc(-c2ccc(/C=N\n3cnnc3)o2)c1`, the IC50 was > 6.48 µM (inactive).
For `O=C(/C=C/c1ccco1)Nc1nnc(-c2ccco2)s1`, the IC50 was > 6.48 µM (inactive).
With `COc1ccc(C[C@@H]2NC(=O)[C@H]3CN(C(=O)NC4CCCCC4)CCN3C2=O)cc1` the IC50 was > 6.48 µM (inactive).
For `O=C(c1ccncc1)N1C2C=CC(C2)C1(C(F)(F)F)C(F)(F)F` (stereo not given), the IC50 was > 6.48 µM (inactive).
With `O=C(NC1CCCCC1)N1CCN2C(=O)[C@@H]3CCCN3C(=O)[C@H]2C1` the IC50 was > 6.48 µM (inactive).
With `O=C(/C=C/c1ccco1)ON1C(=O)c2ccccc2C1=O` the IC50 was > 6.48 µM (inactive).
For `C[C@@H]1NC(=O)[C@H]2CN(C(=O)NCc3ccccc3)CCN2C1=O`, the IC50 was > 6.48 µM (inactive).
`CN=C1SC(CC(=O)Nc2cccc(C(=O)O)c2)C(=O)N1C` (stereo not given) was tested, and the IC50 was > 6.48 µM (inactive).
`CCOC(=O)N1CCN(C(=S)Nc2ccc(OCC)cc2)CC1` was tested, and the IC50 was > 6.48 µM (inactive).
`N[C@@H](C(=O)N[C@@H]1C(=O)N2C(C(=O)O)=C(CSC3CNNN3)CS[C@H]12)c1ccc(O)cc1` (stereo not given in full) (tested in a mixture with another compound) was tested, and the IC50 was > 5.58 µM (inactive).
In the case of `O=S(=O)(N=S(=O)(/C=C/c1ccccc1)c1ccccc1)c1ccccc1` (stereo not given), the IC50 is reported as > 5.36 µM (inactive).
With `O=c1[nH]c(/C=C/c2ccco2)nc(O)c1[N+](=O)[O-]` the IC50 was “inactive”.
For `O=C(CN1C(=O)NC2(CCCCCC2)C1=O)NC(=O)NCc1ccco1`, the IC50 was > 7.16 µM (inactive).
In the case of `Cc1cc(O)c2c(c1)Cc1cccc(O)c1C2=O`, the IC50 is reported as > 6.48 µM (inactive).
`CCOc1ccccc1N1CCN(Cc2cc(OC)c(O)c([N+](=O)[O-])c2)CC1` was tested, and the IC50 was > 6.48 µM (inactive).
For `CC(O)C(=O)N/N=C/C=C/c1ccc([N+](=O)[O-])o1` (stereo not given), the IC50 was > 7.17 µM (inactive).
`C[C@H]1NC(=O)[C@H]2CN(C(=O)NC3CCCCC3)CCN2C1=O` was tested, and the IC50 was > 6.48 µM (inactive).
In the case of `O=C(/C=C/c1ccco1)NC(=S)Nc1cc(C(=O)O)ccc1Cl`, the IC50 is reported as 3.33 µM.
`N#CC1=c2/c(=C/c3ccco3)c(N)c(C#N)n2C(=O)C(c2ccco2)S1` (stereo not given) showed an IC50 of 2.64 µM.
`C[C@@H](O)[C@@H]1NC(=O)[C@H]2CN(C(=O)NC3CCCCC3)CCN2C1=O` was tested, and the IC50 was > 6.48 µM (inactive).
With `CN(C)CCCNC(=O)c1cccc(CN(C(=O)c2nc3ccc(-c4cn[nH]c4)cc3s2)C2CC2)c1` the IC50 was > 6.48 µM (inactive).
For `CN(C)[C@@H]1C(=O)C(C(=O)NCN2CCCC2)=C(O)[C@@]2(O)C(=O)C3=C(O)c4c(O)cccc4[C@@](C)(O)C3CC12` (stereo not given in full), the IC50 was > 6.48 µM (inactive).
With `CC(C)[C@H]1NC(=O)[C@H]2CN(C(=O)NCc3ccccc3)CCN2C1=O` the IC50 was > 6.48 µM (inactive).
`C/C(=N\NC(=O)Cc1cc(=O)[nH][nH]1)c1ccco1` was tested, and the IC50 was > 6.48 µM (inactive).
With `C/C=C\C1=C(C(=O)O)N2C(=O)C(NC(=O)C(N)c3ccc(O)cc3)C2SC1` (stereo not given) the IC50 was > 6.48 µM (inactive).
With `Cc1ccc2[nH]c(=O)c(=O)[nH]c2c1` the IC50 was > 12.1 µM (inactive).
`COc1cc(OC)c(OC)cc1CN1CCN(Cc2ccc(C)cc2)CC1` was tested, and the IC50 was > 5.76 µM (inactive).
For `CC1=NN(c2ccc(C(=O)O)c(N)c2)C(=O)C1`, the IC50 was > 6.48 µM (inactive).
For `O=C(O)CCCNC(=O)/C=C/c1ccco1`, the IC50 was > 6.48 µM (inactive).
In the case of `C=CCc1cc(C)ccc1OCCCCn1ccnc1`, the IC50 is reported as > 6.48 µM (inactive).
For `CN(c1cccc(NS(=O)(=O)c2ccc([N+](=O)[O-])cc2)c1)S(C)(=O)=O`, the IC50 was > 6.48 µM (inactive).
For `Cc1ccc([N+](=O)[O-])cc1S(=O)(=O)Nc1ccc(Nc2ncccc2[N+](=O)[O-])cc1`, the IC50 was > 6.64 µM (inactive).
With `O=C(/C=C/c1ccco1)C1=C(O)C(=O)N(CCCN2CCOCC2)C1c1ccco1` (stereo not given) the IC50 was > 6.48 µM (inactive).
`C/C(=N\Nc1ccc(S(=O)(=O)O)cc1)c1ccc([N+](=O)[O-])o1` was tested, and the IC50 was > 6.48 µM (inactive).
In the case of `C/C(=N\NC(=O)CC1=NNC(=O)C1)c1ccco1`, the IC50 is reported as > 6.48 µM (inactive).
`O=C(O)/C=C/c1ccc([N+](=O)[O-])o1` was tested, and the IC50 was > 10.6 µM (inactive).
`O=S(=O)(c1ccccc1C(F)(F)F)N1CCC(c2nc3ccccc3[nH]2)CC1` was tested, and the IC50 was > 6.48 µM (inactive).
For `CCC(C)NCCOc1cccc(Br)c1` (stereo not given), the IC50 was > 6.48 µM (inactive).
With `CCOC(=O)c1cc(N2C(=O)C3C4C=CC(C4)C3C2=O)ccc1Cl` (stereo not given) the IC50 was > 6.48 µM (inactive).
With `Cc1ccc(O)c(NC(=S)NC(=O)/C=C/c2ccco2)c1` the IC50 was > 6.48 µM (inactive).
In the case of `O=C(c1cccc(F)c1)N1CCN(Cc2ccncc2)CC1`, the IC50 is reported as > 5.66 µM (inactive).
For `O=C(OC1CCOC1=O)c1ccc(S(=O)(=O)NCc2ccco2)cc1` (stereo not given), the IC50 was > 7.1 µM (inactive).
For `N#Cc1cc([N+](=O)[O-])ccc1NC(=O)COC(=O)c1cc(-c2ccco2)nc2ccccc12`, the IC50 was > 7.03 µM (inactive).
`O=C(OC1CCCC1=O)c1ccc(Cl)c(S(=O)(=O)N2CCOCC2)c1` (stereo not given) was tested, and the IC50 was > 6.69 µM (inactive).
In the case of `O=C1OC(c2ccc(Cl)cc2Cl)=N/C1=C\c1ccc([N+](=O)[O-])o1`, the IC50 is reported as > 6.05 µM (inactive).
For `COc1ccc(CN2CCN(Cc3ccccc3OC)CC2)cc1`, the IC50 was > 7.33 µM (inactive).
`NCC1OC(=O)C(Oc2ccccc2)=C1Br` (stereo not given) was tested, and the IC50 was > 6.48 µM (inactive).
With `O=C(c1ccc([N+](=O)[O-])cc1)N1CCN(Cc2cccc3ccccc23)CC1` the IC50 was > 5.48 µM (inactive).
With `CCOc1ccc(CN2CCN(Cc3cccnc3)CC2)cc1` the IC50 was > 5.78 µM (inactive).
In the case of `N#CC(C#N)=Cc1cccn1-c1ccc(C(=O)O)cc1`, the IC50 is reported as > 6.48 µM (inactive).
With `C=CCNC(=O)COC(=O)c1cc(-c2ccco2)nc2ccccc12` the IC50 was > 6.94 µM (inactive).
